Results: patent US20240294572A1, “Antimicrobial Peptides” (priority 2021, published 2024)
Converted amounts (≈) assume the structure as drawn. No end group written: not given here.

What was measured:
[1] = system: Klebsiella pneumonia ATCC 13883; conditions: LL-37 value taken from Narayana, et al.; cited from earlier work
P. aeruginosa PAO1 = conditions: LL-37 value taken from Narayana, et al.; cited from earlier work
[2] = system: human red blood cells (hRBCs); conditions: 50% hemolysis; LL-37 value taken from Narayana, et al.; cited from earlier work
E. coli ATCC 25922 [3] = conditions: LL-37 value taken from Narayana, et al.; cited from earlier work
S. aureus USA300 LAC = assay type: cell-based; conditions: USA300
How it was run: (§1)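 Broth microdilution after CLSI M07-A10, modified: 2-fold peptide dilutions plus log-phase bacteria diluted to 0.001 OD, incubated overnight at 37° C, absorbance read at 630 nm. Medium effects probed with varied pH, NaCl or human serum in TSB (control pH 7.4), with 10%, 50%, 100% TSB, and with MHB.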

E. coli ATCC 25922 [4] = assay type: cell-based
How it was run: as §1

[5] = target: T1, Apolipoprotein A-IV (P06728) (Mus musculus, UniProt P06728); experiment: Mass spectrometry of mouse plasma proteins bound to bead-immobilized peptide; assay type: binding; conditions: peptide on beads, 5% mouse plasma, 18 hours
T1 construct: incubated with 5% mouse plasma; from tissue; host or cells: mouse plasma (5%)
T1 sequence (P06728 21-395): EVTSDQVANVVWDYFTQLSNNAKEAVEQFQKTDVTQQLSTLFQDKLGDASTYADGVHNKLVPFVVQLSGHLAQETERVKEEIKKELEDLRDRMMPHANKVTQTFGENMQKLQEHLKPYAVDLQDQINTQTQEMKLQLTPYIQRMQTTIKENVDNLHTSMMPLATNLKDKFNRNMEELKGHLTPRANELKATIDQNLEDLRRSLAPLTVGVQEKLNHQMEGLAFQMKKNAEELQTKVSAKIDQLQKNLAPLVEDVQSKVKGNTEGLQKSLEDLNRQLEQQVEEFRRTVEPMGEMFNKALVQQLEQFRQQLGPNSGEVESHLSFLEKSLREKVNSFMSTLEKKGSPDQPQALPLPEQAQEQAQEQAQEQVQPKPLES
Method: (§2) Dynabeads M-370 amine (2×10^9 beads/mL, 50 μL; Thermo Fisher Scientific) were washed 3 times in sterile PBS (1 mL; GIBCO) and reacted with a bifunctional SM(PEG)4 cross-linker (5 mg/mL in DMSO) containing N-hydroxysuccinimide (NHS) ester and maleimide functional groups. A stable covalent bond between the amino group of beads and the NHS ester of the cross-linker was formed in PBS at pH 7.2 at room temperature for 24 hours with shaking at 80 rpm. The beads were then washed six times with PBS to remove nonreacted cross-linker. Next, peptide C10-KR8 (with a cysteine at the N-terminus) at 5 mg/mL was reacted with the free maleimide group in PBS for 24 hours at room temperature with shaking at 80 rpm. Another round of washing was conducted to remove the nonreacted peptides. Both the L-and D-forms of the peptide were coupled in the same manner. A portion of the beads without peptide coupling was saved as a control.
(§3) For serum binding experiments, the beads were resuspended in 500 μL of PBS; 200-μL aliquots of the coated and control dynabead were incubated with 5% mouse plasma for 18 hours at 37° C. After binding, the beads were washed six times with PBS to remove unbound proteins. Finally, the beads were suspended in 50 μL of PBS for mass spectrophotometric analysis to identify peptide-binding partners.
(§4) The samples were reduced by 10 mM dithiothreitol (DTT) and incubated for 30 minutes at 56° C. and back to room temperature. A final concentration of 50 mM iodoacetamide was added to alkylate free cysteines followed by further incubation for 20 min in the dark. Bound proteins were enzymatically digested by trypsin (4 μL of 0.5 μg/mL) overnight. A 60 […] portion was transferred to a new Eppendorf® tube and dried for 2 hours. The samples were then dissolved in 20 μL of 2% acetonitrile with 0.1% formic acid before being loaded to Q-tip columns (Pepclean, C18 spin column). Column was activated by pipetting in and out (4× times), 10 μL of 70% acetonitrile with 0.1% formic acid, and equilibrating with the same volume of 2% acetonitrile with 0.1% formic acid. Binding of the samples was done by mixing more than 10 × times, followed by washing in the same buffer (2% acetonitrile with 0.1% formic acid). The bound peptides were then eluted with 20 μL of 70% acetonitrile with 0.1% formic acid. Samples were subjected to LC-MS analysis after being suspended in the desired buffer.
(§5) Extracted peptides were resuspended in 2% acetonitrile (ACN) and 0.1% formic acid (FA) and loaded onto trap column Acclaim™ PepMap™ 100 75 μm×2 cm C18 LC Columns (Thermo Scientific) at a flow rate of 4 μL/minute. These were then separated with a Thermo RSLC UltiMate™ 3000 on a Thermo Easy-Spray PepMap™ M RSLC C18 75 μm×50 cm C-18 2 μm column (Thermo Scientific) with a step gradient of 4-25% solvent B (0.1% FA in 80% ACN) from 10 to 37 minutes and 25-45% solvent B for 37-46 minutes at 300 nL/min and 50° C. with a 70 minute total run time. Eluted peptides were analyzed by a Thermo Orbitrap Fusion™ Lumos™ Tribrid™ (Thermo Scientific) mass spectrometer in a data dependent acquisition mode. A survey full scan MS (from m/z 350-1800) was acquired in the orbitrap with a resolution of 120000. The AGC target for MS1 was set as 4×10^5 and the ion filling time set as 100 ms. The most intense ions with charge state 2-6 were isolated in 3 second cycle and fragmented using HCD fragmentation with 40% normalized collision energy and detected at a mass resolution of 30000 at 200 m/z. The AGC target for MS/MS was set as 5×10^4 and ion filling time set 60 ms dynamic exclusion was set for 30 seconds with a 10 ppm mass window. Protein identification was performed by searching MS/MS data against the Swiss-Prot mouse protein database. The search was set up for full tryptic peptides with a maximum of two missed cleavage sites. Acetylation of protein N-terminus and oxidized methionine were included as variable modifications, and carbamidomethylation of cysteine was set as fixed modification. […]

[6] = target: T2, Apolipoprotein C-I (P34928) (Mus musculus, UniProt P34928); experiment: as above; assay type: binding; conditions: peptide on beads, 5% mouse plasma, 18 hours
T2 construct: incubated with 5% mouse plasma; from tissue; host or cells: mouse plasma (5%)
T2 sequence (P34928 27-88): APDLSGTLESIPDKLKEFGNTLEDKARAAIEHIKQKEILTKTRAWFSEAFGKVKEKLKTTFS
Method: as §2, §3, §4, §5

[7] = target: T3, Apolipoprotein A-II (P09813) (Mus musculus, UniProt P09813); experiment: as above; assay type: binding; conditions: peptide on beads, 5% mouse plasma, 18 hours
T3 construct: incubated with 5% mouse plasma; from tissue; host or cells: mouse plasma (5%)
T3 sequence (P09813 19-102): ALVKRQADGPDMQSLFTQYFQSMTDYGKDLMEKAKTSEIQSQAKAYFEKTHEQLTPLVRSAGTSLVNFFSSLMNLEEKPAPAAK
Method: as §2, §3, §4, §5

[8] = target: T4, Apolipoprotein E (P08226) (Mus musculus, UniProt P08226); experiment: as above; assay type: binding; conditions: peptide on beads, 5% mouse plasma, 18 hours
T4 construct: incubated with 5% mouse plasma; from tissue; host or cells: mouse plasma (5%)
T4 sequence (P08226 19-311): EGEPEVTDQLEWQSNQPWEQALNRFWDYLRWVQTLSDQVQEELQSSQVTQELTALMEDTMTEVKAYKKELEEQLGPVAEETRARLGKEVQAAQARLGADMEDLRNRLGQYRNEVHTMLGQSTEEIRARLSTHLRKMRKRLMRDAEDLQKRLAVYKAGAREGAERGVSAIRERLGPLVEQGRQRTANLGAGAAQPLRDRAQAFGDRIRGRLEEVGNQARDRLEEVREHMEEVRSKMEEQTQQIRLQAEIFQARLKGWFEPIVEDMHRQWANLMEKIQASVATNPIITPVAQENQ
Method: as §2, §3, §4, §5

[9] = target: T5, Apolipoprotein C-III (P33622) (Mus musculus, UniProt P33622); experiment: as above; assay type: binding; conditions: peptide on beads, 5% mouse plasma, 18 hours
T5 construct: incubated with 5% mouse plasma; from tissue; host or cells: mouse plasma (5%)
T5 sequence (P33622 21-99): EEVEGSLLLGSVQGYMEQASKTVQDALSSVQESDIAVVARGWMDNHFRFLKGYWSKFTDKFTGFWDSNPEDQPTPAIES
Method: as §2, §3, §4, §5

Serum albumin (P07724) = target: T6, Serum albumin (P07724) (Mus musculus, UniProt P07724); experiment: as above; assay type: binding; conditions: peptide on beads, 5% mouse plasma, 18 hours
T6 construct: incubated with 5% mouse plasma; from tissue; host or cells: mouse plasma (5%)
T6 sequence (P07724 25-608): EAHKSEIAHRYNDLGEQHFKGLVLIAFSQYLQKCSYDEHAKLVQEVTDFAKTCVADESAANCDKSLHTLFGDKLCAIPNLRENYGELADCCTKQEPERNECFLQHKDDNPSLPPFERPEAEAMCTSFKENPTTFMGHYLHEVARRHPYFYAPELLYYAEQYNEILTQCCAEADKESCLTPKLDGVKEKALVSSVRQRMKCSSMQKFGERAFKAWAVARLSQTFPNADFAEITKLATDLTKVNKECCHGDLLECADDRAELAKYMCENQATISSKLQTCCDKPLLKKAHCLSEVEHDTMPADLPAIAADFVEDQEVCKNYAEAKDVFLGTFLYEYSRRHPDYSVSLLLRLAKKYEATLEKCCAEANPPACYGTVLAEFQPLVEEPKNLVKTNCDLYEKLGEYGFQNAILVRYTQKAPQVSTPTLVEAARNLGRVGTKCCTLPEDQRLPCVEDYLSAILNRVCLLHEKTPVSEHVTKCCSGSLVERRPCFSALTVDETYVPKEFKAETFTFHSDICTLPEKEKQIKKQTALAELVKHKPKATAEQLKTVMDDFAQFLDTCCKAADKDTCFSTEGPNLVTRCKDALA
Method: as §2, §3, §4, §5

[10] = target: T7, Apolipoprotein A-I (Q00623) (Mus musculus, UniProt Q00623); experiment: as above; assay type: binding; conditions: peptide on beads, 5% mouse plasma, 18 hours
T7 construct: incubated with 5% mouse plasma; from tissue; host or cells: mouse plasma (5%)
T7 sequence (Q00623 19-264): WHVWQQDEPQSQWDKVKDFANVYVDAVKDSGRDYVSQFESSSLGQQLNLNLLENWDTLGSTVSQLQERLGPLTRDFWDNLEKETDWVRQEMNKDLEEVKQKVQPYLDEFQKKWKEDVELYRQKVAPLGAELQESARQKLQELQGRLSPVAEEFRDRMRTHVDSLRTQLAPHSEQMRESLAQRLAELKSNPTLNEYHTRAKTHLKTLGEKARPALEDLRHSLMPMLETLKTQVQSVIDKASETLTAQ
Method: as §2, §3, §4, §5

Intensity of bound Apolipoprotein A-IV [5] | Intensity of bound Apolipoprotein C-I [6] | Intensity of bound Apolipoprotein A-II [7] | Intensity of bound Apolipoprotein E [8] | Intensity of bound Apolipoprotein C-III [9] | Intensity of bound Serum albumin (Serum albumin (P07724)) | Intensity of bound Apolipoprotein A-I [10] | Compound | MIC (μM) KP [1] [µM] | MIC (μM) PA (P. aeruginosa PAO1) [µM] | HC50 [2] [µM] | MIC (μM) EC (E. coli ATCC 25922 [3]) [µM] | Minimal inhibitory concentration against S. aureus, 10% TSB (S. aureus USA300 LAC) [µM] | Minimal inhibitory concentration against S. aureus, 50% TSB (S. aureus USA300 LAC) [µM] | Minimal inhibitory concentration against S. aureus, 100% MHB (S. aureus USA300 LAC) [µM] | Minimal inhibitory concentration against S. aureus, 100% TSB (S. aureus USA300 LAC) [µM] | Minimal inhibitory concentration against E. coli, 10% TSB (E. coli ATCC 25922 [4]) [µM] | Minimal inhibitory concentration against E. coli, 50% TSB (E. coli ATCC 25922 [4]) [µM] | Minimal inhibitory concentration against E. coli, 100% MHB (E. coli ATCC 25922 [4]) [µM] | Minimal inhibitory concentration against E. coli, 100% TSB (E. coli ATCC 25922 [4]) [µM]
 |  |  |  |  |  |  | CC[C@H](C)[C@H](NC(=O)[C@H](CCCCN)NC(=O)[C@H](CCC(=O)O)NC(=O)[C@H](CCCCN)NC(=O)[C@H](CO)NC(=O)[C@H](CCCCN)NC(=O)[C@H](CCCNC(=N)N)NC(=O)[C@H](Cc1ccccc1)NC(=O)[C@H](Cc1ccccc1)NC(=O)[C@H](CC(=O)O)NC(=O)CNC(=O)[C@H](CC(C)C)NC(=O)[C@@H](N)CC(C)C)C(=O)NCC(=O)N[C@@H](CCCCN)C(=O)N[C@@H](CCC(=O)O)C(=O)N[C@@H](Cc1ccccc1)C(=O)N[C@@H](CCCCN)C(=O)N[C@@H](CCCNC(=N)N)C(=O)N[C@H](C(=O)N[C@H](C(=O)N[C@@H](CCC(N)=O)C(=O)N[C@@H](CCCNC(=N)N)C(=O)N[C@H](C(=O)N[C@@H](CCCCN)C(=O)N[C@@H](CC(=O)O)C(=O)N[C@@H](Cc1ccccc1)C(=O)N[C@@H](CC(C)C)C(=O)N[C@@H](CCCNC(=N)N)C(=O)N[C@@H](CC(N)=O)C(=O)N[C@@H](CC(C)C)C(=O)N[C@H](C(=O)N1CCC[C@H]1C(=O)N[C@@H](CCCNC(=N)N)C(=O)N[C@H](C(=O)N[C@@H](CCC(=O)O)C(=O)N[C@@H](CO)C(N)=O)[C@@H](C)O)C(C)C)[C@@H](C)CC)C(C)C)[C@@H](C)CC [LL-37, reference compound] | 6.2 (≈ 27.9 µg/mL) | >50 | 170 | 3.1 to 6.2 | 50 (≈ 225 µg/mL) | > 50 | >50 | > 50 | 1.6 (≈ 7.19 µg/mL) | 6.2 (≈ 27.9 µg/mL) | 6.2 (≈ 27.9 µg/mL) | 6.25 to 12.5
3.21E+08 | 4.35E+08 | 3.65E+05 | 1.68E+07 | 2.02E+08 | 3.72E+10 | 4.29E+09 | C10-KR8 + linker: C10-KR8 with a cysteine, covalently attached via SM(PEG)4 cross-linker to Dynabeads M-370 amine (CKRIWQRIK; not fully specified (residue 1, N-terminus, C-terminus); also: added N-terminal Cys coupled via SM(PEG)4 to Dynabeads M-370 amine) |  |  |  |  |  |  |  |  |  |  |  | 
